Results on four molecules are retold here after patent US11458135B2, “Combination of pure 5-HT6 receptor antagonists with acetylcholinesterase inhibitors” (priority 2016, dated 2022).

By Ki is commonly meant a measure of affinity in units of concentration, obtained from inhibition or displacement.

Series [1] relates to acetylcholine levels in ventral hippocampus of male Wistar rats. In words: Acetylcholine modulation in ventral hippocampus (microdialysis), test compound alone. In kind it is in vivo, rat.
Source text: Male Wistar rats (240-300 g body weight) were stereotaxically implanted with a microdialysis guide cannula in ventral hippocampus (AP: −5.2 mm, ML: +5.0 mm, DV: −3.8 mm) under isoflurane anesthesia. […] The rats were allowed to recover individually for four-five days in a round bottom Plexiglas bowl with free access to feed and water.
One day prior to the microdialysis experiment, rats were connected to a dual quartz lined two-channel liquid swivel (Instech, UK) on a counter balance lever arm, which allowed unrestricted movements of the animal. […] On the day of experiment, perfusion rate was changed to 1.2 μL/min and stabilization period of atleast 2 hours was maintained. […] Dialysate samples were collected for additional period of 6 h using CMA/170 refrigerated fraction collector.
All microdialysis data were plotted as percent change from mean dialysate basal concentrations with 100% defined as the average of five predose values. The AUC was calculated by trapezoidal rule using WinNonlin® (5.0.1 version, Pharsight Corp. CA). The statistical significance between the mean AUC values of treatment group with vehicle was calculated using Dunnett's multiple comparison test. For each treatment group, the percent increase in acetylcholine levels was compared to the vehicle group using two-way analysis of variance (time and treatment), followed by Bonferroni post test. […]
Series [2] in a line: Rodent pharmacokinetic study for assessment of drug interaction. Particulars: compound 1 3 mg/kg, p.o., donepezil 1 mg/kg, s.c.; male Wistar rats. On the procedure: Male Wistar rats (260±50 grams) were used as experimental animals. Animals were housed individually in polypropylene cages and acclimatized for three days prior to study.
Blood was collected through retro orbital plexus under isoflurane anesthesia. Collected blood was transferred into a pre-labeled eppendorf tube containing 10 μL of sodium heparin as an anticoagulant. Blood samples were collected at following time points: 0.33, 0.66, 1, 1.5, 2, 4, 6, 8 and 24 hours post dose. Blood was centrifuged at 4000 rpm for 10 minutes. Plasma was separated and stored frozen at −80 ° C. until analysis. […] The test compounds were quantified in the calibration range around 0.05-100 ng/mL in plasma. Study samples were analyzed using calibration samples in the batch and quality control samples spread across the batch.
Pharmacokinetic parameters Cmax, Tmax and AUClast were calculated by non-compartmental model using Phoenix WinNonlin 6.4.0 version Software package.

Series [3] has as its target human recombinant 5-HT2A receptor (Homo sapiens (Human), UniProt P28223). In words: Determination of Ki value at 5-HT2A receptor (radioligand binding, [3H]-Ketanserine). The conditions noted are these: [3H]-Ketanserine 1.75 nM, average of three independent experiments.
Source text: The reaction was terminated by rapid vacuum filtration onto the glass fiber filters.
For series [4], the system named is theta power in dorsal hippocampus of anesthetized male Wistar rats. In words: Evoked theta modulation in dorsal hippocampus of anesthetized male Wistar rats. Format: in vivo, rat. Particulars: donepezil 0.3 mg/kg, i.v. alone.
Procedure: Additionally one electrode was implanted into the cerebellum which served as a reference. Hippocampal θ rhythm was evoked via a 6-s electrical stimulation train (20-160 μA, 0.3-ms pulse duration, 250 Hz) delivered to the NPO at a rate of 0.01 trains/s with a Grass S88 stimulator and PSIU6 stimulus isolation unit (Grass Medical Instruments, Quincy, Mass.). EEG was recorded at a rate of 1000 Hz using Ponemah (Version 5.2) software and stored for off-line analysis using NeuroScore™ (Version 3.0). Baseline amplitude level was achieved by using the current required to elicit θ rhythm to 50% of the maximal amplitude under control conditions.
Power in the θ rhythm frequency in the stimulation period during the 30 min baseline period was calculated and the percent changes in these measures post treatment were calculated. […] Statistical significance was considered at a p value less than 0.05.
In series [5] the test system is acetylcholine levels in ventral hippocampus of male Wistar rats. In words: Acetylcholine modulation in ventral hippocampus (microdialysis), combination treatment. Format: in vivo, rat. The conditions noted are these: s.c. alone.
Source text: However, there were minor modifications in the microdialysis experiment.
After surgical recovery of 4-5 days, male Wistar rats were connected to dual quartz lined two-channel liquid swivel (Instech, UK) on a counter balance lever arm, which allowed unrestricted movements of the animal. Sixteen hours before start of study, a pre-equilibrated microdialysis probe (4 mm dialysis membrane) was inserted into the ventral hippocampus through the guide cannula. On the day of study, the probe was perfused with aCSF at a flow rate of 1.5 μL/min and a stabilization period of 2 h was maintained. […] Dialysates were stored below −50° C. prior to analysis.
All microdialysis data for acetylcholine was plotted as percent change from mean dialysate basal concentrations with 100% defined as the average of five pre-dose values. […] Statistical significance was considered at a p value less than 0.05. Incorrect probe placement was considered as criteria to reject the data from animal.

The structures appear in SMILES notation. Counter-ions that a name gives are not always drawn.

As to `COc1ccc2c(c1)c(CN1CCN(C)CC1)cn2S(=O)(=O)c1ccccc1Br` [Compound 1, 1-[(2-Bromophenyl)sulfonyl]-5-methoxy-3-[(4-methyl-1-piperazinyl)methyl]-1H-indole dimesylate monohydrate], in series [1] (3 mg/kg, p.o., ventral hippocampus, male Wistar rats), the “increase in hippocampal acetylcholine levels” value is “about 172%”. Moreover, the “Area under the curve value of acetylcholine change vs vehicle treatment” value in series [1] (compound 1 p.o., FIG. 2) is “significantly higher”. The “difference in plasma exposures administered alone or in combination” value in series [2] is “No significant difference”.

On to `COc1ccc2c(c1)c(CN1CCN(C)CC1)cn2S(=O)(=O)c1ccc(F)cc1` [Compound 2, 1-[(4-Fluorophenyl)sulfonyl]-5-methoxy-3-[(4-methyl-1-piperazinyl)methyl]-1H-indole dihydrochloride], for which the inhibition constant (Ki) in series [3] was greater than 10 µM.

As to `COc1cc2c(cc1OC)C(=O)C(CC1CCN(Cc3ccccc3)CC1)C2` (stereo not shown) [Donepezil], the hippocampal theta power entry in series [4] was “moderate increase”. Also, the “maximum hippocampal acetylcholine levels” value in series [5] (donepezil 1 mg/kg) is reported as 703±134 % of basal levels.

`CCN(C)C(=O)Oc1cccc([C@H](C)N(C)C)c1` [rivastigmine, Rivastigmine]: the “increase in hippocampal acetylcholine level” value in series [5] (rivastigmine 0.5 mg/kg) is “about 3 fold”.
